Test results as given in paper PMC7780120, “Modulators of histone demethylase JMJD1C selectively target leukemic stem cells” (FEBS Open Bio, 2020).

Target: T1, JMJD1C (partial, 2274-2498aa) (Homo sapiens, UniProt Q15652)
T1 construct: immobilised on CM7 chip
T1 sequence (Q15652 2274-2498): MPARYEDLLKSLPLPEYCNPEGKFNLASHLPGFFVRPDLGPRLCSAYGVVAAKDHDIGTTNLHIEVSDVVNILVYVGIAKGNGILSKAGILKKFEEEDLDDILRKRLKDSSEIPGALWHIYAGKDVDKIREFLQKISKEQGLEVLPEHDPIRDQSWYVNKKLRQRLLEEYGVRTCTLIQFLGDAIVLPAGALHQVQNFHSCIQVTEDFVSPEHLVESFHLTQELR
Test: SPR, immobilised protein, […] Langmuir fit
Format: binding

With `CN1CC(=O)N2[C@H](c3ccc4c(c3)OCO4)c3[nH]c4ccccc4c3C[C@@H]2C1=O` [tadalafil] the Kd was 256 µM.
